The assay addresses T1, recombinant LRRK2 kinase (Homo sapiens, UniProt Q5S007).
T1 construct: purchased Signal Chem, Richmond, BC, Canada
Put plainly: LRRK2 kinase inhibition (Kinase-Glo luminescence). It is filed as biochemical. The conditions noted are these: IC50 grade; 25 μmol/L ATP, LRRKtide, 30° C. 2 hours; read-out: Enzyme activity LRRK2. The protocol:
Upon completion of the reaction, an equal amount of Kinase-Glo (Promega, Madison, Wis.) solution was added thereto, followed by reaction for 40 minutes. A detection solution was added thereto, followed by further reaction at room temperature for 30 minutes. Then, IC50 of kinase was calculated by measuring the amount of luciferase using a microplate ELISA reader (Bio-Tek).

Structures are written as SMILES. Where only a bound is given, the exact number is not on record here.

T1 sequence (Q5S007 whole entry): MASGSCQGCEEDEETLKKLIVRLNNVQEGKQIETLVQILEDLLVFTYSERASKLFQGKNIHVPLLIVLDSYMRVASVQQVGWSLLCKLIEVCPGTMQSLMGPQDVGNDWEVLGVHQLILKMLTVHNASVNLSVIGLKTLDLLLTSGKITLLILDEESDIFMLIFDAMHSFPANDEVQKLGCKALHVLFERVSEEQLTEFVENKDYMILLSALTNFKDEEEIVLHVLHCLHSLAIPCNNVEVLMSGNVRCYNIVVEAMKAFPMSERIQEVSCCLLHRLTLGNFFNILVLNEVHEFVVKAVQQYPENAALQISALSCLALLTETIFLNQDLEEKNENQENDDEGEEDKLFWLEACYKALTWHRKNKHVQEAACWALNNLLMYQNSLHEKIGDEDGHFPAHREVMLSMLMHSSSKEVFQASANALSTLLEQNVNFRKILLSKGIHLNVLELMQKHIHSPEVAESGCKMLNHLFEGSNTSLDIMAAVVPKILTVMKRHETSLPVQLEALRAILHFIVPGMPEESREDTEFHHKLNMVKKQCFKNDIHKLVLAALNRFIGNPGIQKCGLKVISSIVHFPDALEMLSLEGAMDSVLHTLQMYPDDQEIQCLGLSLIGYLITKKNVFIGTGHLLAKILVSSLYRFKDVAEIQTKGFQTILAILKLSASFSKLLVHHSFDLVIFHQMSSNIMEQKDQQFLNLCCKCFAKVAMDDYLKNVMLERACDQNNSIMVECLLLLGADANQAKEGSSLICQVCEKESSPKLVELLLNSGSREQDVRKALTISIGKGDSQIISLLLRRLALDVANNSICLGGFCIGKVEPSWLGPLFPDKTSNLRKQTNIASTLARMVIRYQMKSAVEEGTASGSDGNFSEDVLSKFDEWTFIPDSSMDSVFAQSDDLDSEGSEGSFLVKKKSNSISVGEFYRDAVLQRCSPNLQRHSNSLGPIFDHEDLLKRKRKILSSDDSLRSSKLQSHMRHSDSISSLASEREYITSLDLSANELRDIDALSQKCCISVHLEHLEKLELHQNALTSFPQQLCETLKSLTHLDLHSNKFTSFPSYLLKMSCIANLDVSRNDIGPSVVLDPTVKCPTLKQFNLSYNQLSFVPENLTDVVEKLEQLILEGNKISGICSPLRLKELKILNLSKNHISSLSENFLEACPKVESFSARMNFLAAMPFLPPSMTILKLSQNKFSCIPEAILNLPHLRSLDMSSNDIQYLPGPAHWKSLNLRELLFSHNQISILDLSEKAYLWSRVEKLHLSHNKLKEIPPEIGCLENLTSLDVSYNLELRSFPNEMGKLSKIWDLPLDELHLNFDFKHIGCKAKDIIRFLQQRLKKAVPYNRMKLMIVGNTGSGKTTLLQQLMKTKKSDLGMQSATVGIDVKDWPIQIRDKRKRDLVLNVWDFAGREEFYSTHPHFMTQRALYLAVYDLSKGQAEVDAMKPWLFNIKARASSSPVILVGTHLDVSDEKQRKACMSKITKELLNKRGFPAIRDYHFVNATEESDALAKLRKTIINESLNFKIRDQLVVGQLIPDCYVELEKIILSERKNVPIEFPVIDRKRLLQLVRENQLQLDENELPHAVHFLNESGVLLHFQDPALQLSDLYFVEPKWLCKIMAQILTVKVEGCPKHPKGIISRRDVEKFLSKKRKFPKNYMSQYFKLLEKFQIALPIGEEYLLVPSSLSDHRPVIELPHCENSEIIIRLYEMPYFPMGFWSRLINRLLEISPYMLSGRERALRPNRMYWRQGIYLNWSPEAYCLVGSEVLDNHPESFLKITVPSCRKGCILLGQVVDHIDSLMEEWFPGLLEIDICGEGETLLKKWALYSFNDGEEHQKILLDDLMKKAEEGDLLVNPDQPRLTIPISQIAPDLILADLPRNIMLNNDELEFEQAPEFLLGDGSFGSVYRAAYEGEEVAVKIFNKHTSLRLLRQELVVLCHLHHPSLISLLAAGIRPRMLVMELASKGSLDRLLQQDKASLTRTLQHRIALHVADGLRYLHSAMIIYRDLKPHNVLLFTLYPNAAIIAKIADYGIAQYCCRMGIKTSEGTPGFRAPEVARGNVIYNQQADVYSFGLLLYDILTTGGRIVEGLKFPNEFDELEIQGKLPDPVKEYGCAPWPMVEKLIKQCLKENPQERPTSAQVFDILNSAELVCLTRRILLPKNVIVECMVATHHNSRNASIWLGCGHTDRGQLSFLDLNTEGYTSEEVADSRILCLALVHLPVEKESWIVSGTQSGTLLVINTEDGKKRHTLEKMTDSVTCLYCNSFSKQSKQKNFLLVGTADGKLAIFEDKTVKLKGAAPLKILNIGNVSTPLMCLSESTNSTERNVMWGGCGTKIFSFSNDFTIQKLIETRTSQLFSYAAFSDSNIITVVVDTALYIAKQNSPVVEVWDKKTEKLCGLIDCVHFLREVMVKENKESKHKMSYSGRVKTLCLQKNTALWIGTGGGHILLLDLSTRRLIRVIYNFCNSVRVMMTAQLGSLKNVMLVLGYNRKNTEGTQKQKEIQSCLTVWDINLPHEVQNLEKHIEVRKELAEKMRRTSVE

Turning to `Cc1c(Nc2nc(NC3(C)CC3)c3c(C#N)c[nH]c3n2)cnn1C(C)C` [Example 38, 2-((1-isopropyl-5-methyl-1H-pyrazole-4-yl)amino)-4-((1-methylcyclopropyl)amino)-7H-pyrrolo[2,3-d]pyrimidine-5-carbonitrile], the IC50 was less than 10 nM. Regarding `Cc1nn(C(C)C)cc1Nc1nc(NC2(C)CC2)c2c(C#N)c[nH]c2n1` [Example 39, 2-((1-isopropyl-3-methyl-1H-pyrazole-4-yl)amino)-4-((1-methylcyclopropyl)amino)-7H-pyrrolo[2,3-d]pyrimidine-5-carbonitrile], the IC50 is less than 10 nM.

Take `Cc1nn(C)cc1Nc1nc(NC2(C)CC2)c2c(C#N)c[nH]c2n1` [Example 40, 2-((1,3-dimethyl-1H-pyrazole-4-yl)amino)-4-((1-methylcyclopropyl)amino)-7H-pyrrolo[2,3-d]pyrimidine-5-carbonitrile]: the IC50 is less than 10 nM. The result for `Cc1c(Nc2nc(NC3(C)CC3)c3c(C#N)c[nH]c3n2)cnn1C` [Example 41, 2-((1,5-dimethyl-1H-pyrazole-4-yl)amino)-4-((1-methylcyclopropyl)amino)-7H-pyrrolo[2,3-d]pyrimidine-5-carbonitrile] reads less than 10 nM; that for `COc1cc(C(=O)N2CCO[C@H](C)C2)ccc1Nc1nc(NC2(C)CC2)c2c(C#N)c[nH]c2n1` [Example 42, (R)-2-((2-methoxy-4-(2-methylmorpholine-4-carbonyl)phenyl)amino)-4-((1-methylcyclopropyl)amino)-7H-pyrrolo[2,3-d]pyrimidine-5-carbonitrile], less than 10 nM. On to `COc1cc(C(=O)N2CCO[C@@H](C)C2)ccc1Nc1nc(NC2(C)CC2)c2c(C#N)c[nH]c2n1` [Example 43, (S)-2-((2-methoxy-4-(2-methylmorpholine-4-carbonyl)phenyl)amino)-4-((1-methylcyclopropyl)amino)-7H-pyrrolo[2,3-d]pyrimidine-5-carbonitrile], for which the IC50 is less than 10 nM. As for `COc1cc(C(=O)N2C[C@@H](C)O[C@@H](C)C2)ccc1Nc1nc(NC2(C)CC2)c2c(C#N)c[nH]c2n1` [Example 44, 2-((4-((2R,6S)-2,6-dimethylmorpholine-4-carbonyl)-2-methoxyphenyl)amino)-4-((1-methylcyclopropyl)amino)-7H-pyrrolo[2,3-d]pyrimidine-5-carbonitrile], the IC50 fell in the range of 10 to 100 nM. The result for `COc1cc(C(=O)N2CCC(F)(F)CC2)ccc1Nc1nc(NC2(C)CC2)c2c(C#N)c[nH]c2n1` [Example 45, 2-((4-(4,4-difluoropiperidine-1-carbonyl)-2-methoxyphenyl)amino)-4-((1-methylcyclopropyl)amino)-7H-pyrrolo[2,3-d]pyrimidine-5-carbonitrile] reads 10 to 100 nM.

Regarding `CNc1nc(Nc2cn(C(C)(C)C(N)=O)nc2C)nc2[nH]cc(C#N)c12` [Example 46, 2-(4-((5-cyano-4-(methylamino)-7H-pyrrolo[2,3-d]pyrimidine-2-yl)amino)-3-methyl-1H-pyrazole-1-yl)-2-methylpropaneamide], the IC50 was less than 10 nM. As to `CNc1nc(Nc2cn(C(C)(C)C#N)nc2C)nc2[nH]cc(C#N)c12` [Example 47, 2-((1-(2-cyanopropane-2-yl)-3-methyl-1H-pyrazole-4-yl)amino)-4-(methylamino)-7H-pyrrolo[2,3-d]pyrimidine-5-carbonitrile], the IC50 was less than 10 nM. The result for `CCNc1nc(Nc2ncc(C(=O)N3CCOCC3)cc2OC)nc2[nH]cc(C#N)c12` [Example 48, 4-(ethylamino)-2-((3-methoxy-5-(morpholine-4-carbonyl)pyridine-2-yl)amino)-7H-pyrrolo[2,3-d]pyrimidine-5-carbonitrile] reads greater than 100 nM. For `Cc1nn(C(C)(C)C#N)cc1Nc1nc(NC2(C)CC2)c2c(C#N)c[nH]c2n1` [Example 49, 2-((1-(2-cyanopropane-2-yl)-3-methyl-1H-pyrazole-4-yl)amino)-4-((1-methylcyclopropyl)amino)-7H-pyrrolo[2,3-d]pyrimidine-5-carbonitrile], the IC50 was less than 10 nM. The result for `CNc1nc(Nc2cnn([C@H]3CCN(C4COC4)C[C@@H]3F)c2Cl)nc2[nH]cc(C#N)c12` [Example 50, 2-((5-chloro-1-((3S,4S)-3-fluoro-1-(oxetane-3-yl)piperidine-4-yl)-1H-pyrazole-4-yl)amino)-4-(methylamino)-7H-pyrrolo[2,3-d]pyrimidine-5-carbonitrile] reads less than 10 nM. In the case of `CCNc1nc(Nc2cnn([C@H]3CCN(C4COC4)C[C@@H]3F)c2Cl)nc2[nH]cc(C#N)c12` [Example 51, 2-((5-chloro-1-((3S,4S)-3-fluoro-1-(oxetane-3-yl)piperidine-4-yl)-1H-pyrazole-4-yl)amino)-4-(ethylamino)-7H-pyrrolo[2,3-d]pyrimidine-5-carbonitrile] it was less than 10 nM; in that of `CCNc1nc(Nc2cnn([C@H]3CCN(C4COC4)C[C@@H]3F)c2)nc2[nH]cc(C#N)c12` [Example 53], less than 10 nM; in that of `CC1(Nc2nc(Nc3cnn([C@H]4CCN(C5COC5)C[C@@H]4F)c3)nc3[nH]cc(C#N)c23)CC1` [Example 54, 2-((1-((3S,4S)-3-fluoro-1-(oxetane-3-yl)piperidine-4-yl)-1H-pyrazole-4-yl)amino)-4-((methylcyclopropyl)amino)-7H-pyrrolo[2,3-d]pyrimidine-5-carbonitrile], less than 10 nM. Consider `CNc1nc(Nc2ccc(C(=O)NC3CCN(C)CC3)cc2OC)nc2[nH]cc(C#N)c12` [Example 55, 4-((5-cyano-4-(methylamino)-7H-pyrrolo[2,3-d]pyrimidine-2-yl)amino)-3-methoxy-N-(1-methylpiperidine-4-yl)benzamide], for which the IC50 was less than 10 nM. As to `CCNc1nc(Nc2ccc(C(=O)NC3CCN(C)CC3)cc2OC)nc2[nH]cc(C#N)c12` [Example 56, 4-((5-cyano-4-(ethylamino)-7H-pyrrolo[2,3-d]pyrimidine-2-yl)amino)-3-methoxy-N-(1-methylpiperidine-4-yl)benzamide], the IC50 was less than 10 nM. The result for `CNc1nc(Nc2ccc(C(=O)N3CCN(C4COC4)CC3)cc2OC)nc2[nH]cc(C#N)c12` [Example 57] reads less than 10 nM; that for `CCNc1nc(Nc2ccc(C(=O)N3CCN(C4COC4)CC3)cc2OC)nc2[nH]cc(C#N)c12` [Example 58, 4-(ethylamino)-2-((2-methoxy-4-(4-(oxetane-3-yl)piperazine-1-carbonyl)phenyl)amino)-7H-pyrrolo[2,3-d]pyrimidine-5-carbonitrile], less than 10 nM; that for `CNc1nc(Nc2cnn(CCOC)c2Cl)nc2[nH]cc(C#N)c12` [Example 59, 2-((5-chloro-1-(2-methoxyethyl)-1H-pyrazole-4-yl)amino)-4-(methylamino)-7H-pyrrolo[2,3-d]pyrimidine-5-carbonitrile], less than 10 nM.

Take `CCNc1nc(Nc2ccc(C(=O)NC3CCN(C4COC4)CC3)cc2OC)nc2[nH]cc(C#N)c12` [Example 60, 4-((5-cyano-4-(ethylamino)-7H-pyrrolo[2,3-d]pyrimidine-2-yl)amino)-3-methoxy-N-(1-(oxetane-3-yl)piperidine-4-yl)benzylamide]: the IC50 lay in the range of 10 to 100 nM.

As to `CNc1nc(Nc2ccc(C(=O)NC3CCN(C4COC4)CC3)cc2OC)nc2[nH]cc(C#N)c12` [Example 61, 4-((5-cyano-4-(methylamino)-7H-pyrrolo[2,3-d]pyrimidine-2-yl)amino)-3-methoxy-N-(1-(oxetane-3-yl)piperidine-4-yl)benzylamide], the IC50 is 10 to 100 nM. In the case of `CCNc1nc(Nc2cnn(CCOC)c2Cl)nc2[nH]cc(C#N)c12` [Example 62, 2-((5-chloro-1-(2-methoxyethyl)-1H-pyrazole-4-yl)amino)-4-(ethylamino)-7H-pyrrolo[2,3-d]pyrimidine-5-carbonitrile] it was less than 10 nM; in that of `CNc1nc(Nc2cc(F)c(C(=O)NC3CCN(C4COC4)CC3)cc2OC)nc2[nH]cc(C#N)c12` [Example 63, 4-((5-cyano-4-(methylamino)-7H-pyrrolo[2,3-d]pyrimidine-2-yl)amino)-2-fluoro-5-methoxy-N-(1-(oxetane-3-pyrrolidine-1-yl)piperidine-4-yl)benzamide], less than 10 nM; in that of `CNc1nc(Nc2cc(F)c(C(=O)NC3CCN(C)CC3)cc2OC)nc2[nH]cc(C#N)c12` [Example 65, 4-((5-cyano-4-(methylamino)-7H-pyrrolo[2,3-d]pyrimidine-2-yl)amino)-2-fluoro-5-methoxy-N-(1-methylpiperidine-4-yl)benzamide], less than 10 nM. The result for `CCNc1nc(Nc2cc(F)c(C(=O)NC3CCN(C)CC3)cc2OC)nc2[nH]cc(C#N)c12` [Example 66, 4-((5-cyano-4-(ethylamino)-7H-pyrrolo[2,3-d]pyrimidine-2-yl)amino)-2-fluoro-5-methoxy-N-(1-methylpiperidine-4-yl)benzamide] reads 10 to 100 nM. The result for `CNc1nc(Nc2cc(F)c(C(=O)NC3CCN(C(C)C)CC3)cc2OC)nc2[nH]cc(C#N)c12` [Example 67, 4-((5-cyano-4-(methylamino)-7H-pyrrolo[2,3-d]pyrimidine-2-yl)amino)-2-fluoro-N-(1-isopropylpiperidine-4-yl)-5-methoxybenzamide] reads less than 10 nM. For the molecule `CCNc1nc(Nc2cc(F)c(C(=O)NC3CCN(C(C)C)CC3)cc2OC)nc2[nH]cc(C#N)c12` [Example 68, 4-((5-cyano-4-(ethylamino)-7H-pyrrolo[2,3-d]pyrimidine-2-yl)amino)-2-fluoro-N-(1-isopropylpiperidine-4-yl)-5-methoxybenzamide], the IC50 is less than 10 nM. In the case of `CNc1nc(Nc2cnn(CCO)c2)nc2[nH]cc(C#N)c12` [Example 69, 2-((1-(2-hydroxyethyl)-1H-pyrazole-4-yl)amino)-4-(methylamino)-7H-pyrrolo[2,3-d]pyrimidine-5-carbonitrile] it was less than 10 nM.

Take `CCNc1nc(Nc2cnn(CCO)c2)nc2[nH]cc(C#N)c12` [Example 70, 4-(ethylamino)-2-((1-(2-hydroxyethyl)-1H-pyrazole-4-yl)amino)-7H-pyrrolo[2,3-d]pyrimidine-5-carbonitrile]: the IC50 was less than 10 nM.

The values are drawn from patent US11208412B2 (DAEGU-GYEONGBUK MEDICAL INNOVATION FOUNDATION, priority 2017, dated 2021).
